Our source for the Activity and Ki values is ChEMBL document CHEMBL1140524, “Facile one-pot synthesis of thio and selenourea derivatives: a new class of potent urease inhibitors” (Bioorg Med Chem Lett, 2007).

pKi: −log10 of the molar value. Active and inactive are the calls of the source. The calls are words filed in the database; no cut-off is given here.

Urease, sequence (P07374 whole entry): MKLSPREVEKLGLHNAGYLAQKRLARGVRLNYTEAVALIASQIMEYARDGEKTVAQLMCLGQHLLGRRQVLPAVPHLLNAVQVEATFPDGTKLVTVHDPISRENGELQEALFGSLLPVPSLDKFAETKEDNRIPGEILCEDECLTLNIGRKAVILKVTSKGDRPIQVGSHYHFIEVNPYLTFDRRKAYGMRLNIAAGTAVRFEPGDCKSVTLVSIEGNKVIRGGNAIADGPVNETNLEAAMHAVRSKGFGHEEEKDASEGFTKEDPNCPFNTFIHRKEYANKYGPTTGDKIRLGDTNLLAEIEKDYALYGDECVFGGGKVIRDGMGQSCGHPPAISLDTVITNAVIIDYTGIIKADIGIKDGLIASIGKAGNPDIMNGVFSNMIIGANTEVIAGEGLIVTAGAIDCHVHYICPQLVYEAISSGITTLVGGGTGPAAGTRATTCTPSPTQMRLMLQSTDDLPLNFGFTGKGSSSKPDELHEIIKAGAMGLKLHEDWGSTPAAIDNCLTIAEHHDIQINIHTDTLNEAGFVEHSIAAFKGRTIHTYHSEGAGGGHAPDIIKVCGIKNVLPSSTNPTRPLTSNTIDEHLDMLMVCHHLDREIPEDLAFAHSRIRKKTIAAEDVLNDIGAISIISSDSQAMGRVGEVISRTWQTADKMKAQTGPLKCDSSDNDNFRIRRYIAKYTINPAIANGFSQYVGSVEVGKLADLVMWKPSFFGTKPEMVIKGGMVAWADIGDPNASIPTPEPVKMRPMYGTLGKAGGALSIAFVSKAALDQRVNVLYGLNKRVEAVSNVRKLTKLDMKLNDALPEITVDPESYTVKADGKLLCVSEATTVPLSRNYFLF

The first experiment deals with Urease (Canavalia ensiformis) (UniProt P07374). In words: (§1) Inhibition of jack bean urease.
Urease (Canavalia ensiformis), sequence (P07374 whole entry, looked up): as the sequence (P07374 whole entry) above
On to `CN(C)C(=[Se])N1CCOCC1`, for which the outcome was inactive. On the same count and under the same terms, next, `CN(C)C(=S)N1CCOCC1`: “inactive”.

The next experiment addresses Urease (Canavalia ensiformis, UniProt P07374). The description is as §1.
As for `CCCCCCCCCCCCNC(=S)N(C)C`, the pKi (in general, the Ki on a negative log10 scale, so that one unit is a factor of ten) was 6.91. In turn, `CN(C)C(=S)Nc1ccc(Br)cc1` gave a pKi of 6.59. The same measure, in the same setting: next, `CC(C)N(C(=[Se])N(C)C)C1CCCCC1`: 7.60. The same measure, in the same setting: next, `CN(C)C(=[Se])NCc1ccc(Br)cc1`: 6.87; `C[C@H](NC(=[Se])N(C)C)c1cccc2ccccc12`: 7.03.
